Laboratory results reported in PubChem BioAssay (NCI).
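Compound exposure: 48 hours, 5 concentrations, 96-well plates. The concentration for 50% growth inhibition is given as GI50. The concentration for full growth arrest is given as TGI.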

How the values were obtained:
Assay in all cases: NCI tumour cell line growth inhibition, 48 h
[1] = tested on: CAKI-1 renal
[2] = tested on: HOP-62 NSCLC
[3] = tested on: U251 CNS
[4] = tested on: HL-60(TB) leukemia
[5] = tested on: MOLT-4 leukemia
[6] = tested on: TK-10 renal
[7] = tested on: CCRF-CEM leukemia
[8] = tested on: NCI-H23 lung
[9] = tested on: SW-620 colon
[10] = tested on: UO-31 renal
[11] = tested on: IGROV1 ovarian
[12] = tested on: OVCAR-8 ovarian
[13] = tested on: KM12 colon
[14] = tested on: HS 578T breast
[15] = tested on: OVCAR-4 ovarian
[16] = tested on: SK-MEL-2 melanoma
[17] = tested on: SF-268 CNS
[18] = tested on: SF-539 CNS
[19] = tested on: T-47D breast
[20] = tested on: SNB-19 CNS
[21] = tested on: A549 NSCLC
[22] = tested on: RPMI-8226 leukemia
[23] = tested on: NCI/ADR-RES ovarian
[24] = tested on: SR leukemia
[25] = tested on: DU-145 prostate
[26] = tested on: 786-0 renal
[27] = tested on: OVCAR-3 ovarian
[28] = tested on: UACC-62 melanoma
[29] = tested on: LOX IMVI melanoma
[30] = tested on: RXF 393 renal
[31] = tested on: SN12C renal
[32] = tested on: MCF7 breast
[33] = tested on: PC-3 prostate
[34] = tested on: HCT-116 colon
[35] = tested on: NCI-H460 lung
[36] = tested on: EKVX NSCLC
[37] = tested on: MDA-MB-231 breast
[38] = tested on: BT-549 breast
[39] = tested on: M14 melanoma
[40] = tested on: SK-MEL-5 melanoma
[41] = tested on: A498 renal
[42] = tested on: HOP-92 NSCLC
[43] = tested on: HCC-2998 colon
[44] = tested on: K-562 leukemia
[45] = tested on: MDA-MB-435
[46] = tested on: ACHN renal
[47] = tested on: OVCAR-5 ovarian
[48] = tested on: MDA-MB-468 breast
[49] = tested on: SNB-75 CNS
[50] = tested on: SK-OV-3 ovarian
[51] = tested on: SK-MEL-28 melanoma
[52] = tested on: NCI-H226 lung
[53] = tested on: COLO 205 colon
[54] = tested on: SF-295 CNS
[55] = tested on: UACC-257 melanoma
[56] = tested on: HCT-15 colon
[57] = tested on: HT29 colon
[58] = tested on: NCI-H522 lung
[59] = tested on: MALME-3M melanoma

For O=C(CNc1nc(-c2ccccc2)cs1)Nc1ccc(Cl)cc1, the GI50 [1] was 0.466 µM, the TGI [1] was 1.89 µM and the GI50 [2] was 1.35 µM. The TGI [2] was 2.73 µM, the GI50 [3] was 0.339 µM and the TGI [3] was 0.813 µM. For the same compound, the GI50 [4] was 0.304 µM, the TGI [4] was 2.26 µM and the GI50 [5] was 0.364 µM. The GI50 [6] was 1.07 µM, the TGI [6] was 2.52 µM and the GI50 [7] was 0.243 µM. The TGI [7] was over 21.5 µM, the GI50 [8] was 0.407 µM and the TGI [8] was 1.02 µM. For the same compound, the GI50 [9] was 0.683 µM, the TGI [9] was 1.91 µM and the GI50 [10] was 0.654 µM. It also gave a TGI [10] of 2.03 µM, a GI50 [11] of 0.554 µM and a TGI [11] of 1.75 µM. The GI50 [12] was 0.989 µM, the GI50 [13] was 0.828 µM and the TGI [13] was 2.53 µM. For the same compound, the GI50 [14] was 1.27 µM, the TGI [14] was over 91.3 µM and the GI50 [15] was 1.34 µM. The TGI [15] was 3.17 µM, the GI50 [16] was 0.646 µM and the TGI [16] was 2.07 µM. It also gave a GI50 [17] of 1.88 µM, a TGI [17] of 10.1 µM and a GI50 [18] of 0.518 µM. For the same compound, the TGI [18] was 0.971 µM, the GI50 [19] was 0.337 µM and the TGI [19] was 2.44 µM. The GI50 [20] was 0.777 µM, the TGI [20] was 2.13 µM and the GI50 [21] was 1.07 µM. It also gave a TGI [21] of 2.48 µM, a GI50 [22] of 0.331 µM and a TGI [22] of 2.72 µM. The GI50 [23] was 0.213 µM, the TGI [23] was 0.533 µM and the GI50 [24] was 25.5 µM. The TGI [24] was over 100 µM, the GI50 [25] was 1.54 µM and the TGI [25] was 2.92 µM. The GI50 [26] was 0.217 µM, the TGI [26] was 0.469 µM and the GI50 [27] was 0.552 µM. It also gave a TGI [27] of 1.31 µM, a GI50 [28] of 0.496 µM and a TGI [28] of 1.64 µM. It also gave a GI50 [29] of 0.167 µM, a TGI [29] of 0.616 µM and a GI50 [30] of 0.514 µM. It also gave a TGI [30] of 1.17 µM, a GI50 [31] of 0.465 µM and a TGI [31] of 1.23 µM. For the same compound, the GI50 [32] was 0.323 µM, the TGI [32] was 0.86 µM and the GI50 [33] was 0.519 µM. It also gave a TGI [33] of 2.61 µM, a GI50 [34] of 0.196 µM and a TGI [34] of 0.796 µM. It also gave a GI50 [35] of 0.936 µM, a TGI [35] of 3.12 µM and a GI50 [36] of 0.53 µM. It also gave a TGI [36] of 1.2 µM, a GI50 [37] of 0.48 µM and a TGI [37] of 1.39 µM. It also gave a GI50 [38] of 0.216 µM, a TGI [38] of 0.643 µM and a GI50 [39] of 0.341 µM. The TGI [39] was 1.68 µM, the GI50 [40] was 0.44 µM and the TGI [40] was 0.851 µM. It also gave a GI50 [41] of 2.15 µM, a TGI [41] of 5.02 µM and a GI50 [42] of 0.461 µM. The TGI [42] was 2.13 µM, the GI50 [43] was 0.835 µM and the TGI [43] was 2.18 µM. For the same compound, the GI50 [44] was 0.224 µM, the TGI [44] was over 100 µM and the GI50 [45] was 0.559 µM. For the same compound, the TGI [45] was 2.1 µM, the GI50 [46] was 0.385 µM and the TGI [46] was 0.846 µM. For the same compound, the GI50 [47] was 1.03 µM, the TGI [47] was 2.41 µM and the GI50 [48] was 0.394 µM. It also gave a TGI [48] of 0.877 µM, a GI50 [49] of 0.628 µM and a TGI [49] of 5.9 µM. For the same compound, the GI50 [50] was 1.39 µM, the TGI [50] was 4.54 µM and the GI50 [51] was 1.08 µM. It also gave a TGI [51] of 2.43 µM, a GI50 [52] of 0.651 µM and a TGI [52] of 2.94 µM. It also gave a GI50 [53] of 1.58 µM, a TGI [53] of 3.23 µM and a GI50 [54] of 0.708 µM. The TGI [54] was 2.15 µM, the GI50 [55] was 1.06 µM and the TGI [55] was 3.29 µM. For the same compound, the GI50 [56] was 0.315 µM, the TGI [56] was 0.8 µM and the GI50 [57] was 0.348 µM. For the same compound, the TGI [57] was 1.32 µM, the GI50 [58] was 0.152 µM and the TGI [58] was 0.305 µM. The GI50 [59] was 0.507 µM and the TGI [59] was 1.2 µM.
